Measurements as given in ChEMBL document CHEMBL1148995, “Antitumor agents from bohemic acid complex, VI. Schaunardimycin” (J Nat Prod, 1984).

Assays:
L1210 [1] = assay: Antitumor activity against mouse L1210 cells implanted in CDF1 mouse at 0.4 mg/kg, ip single dose on day 1 relative to control; format: functional; conditions: route intraperitoneal
L1210 [2] = assay: Antitumor activity against mouse L1210 cells implanted in CDF1 mouse assessed as median survival time at 1.6 mg/kg, ip qd for 1 to 5 days; format: functional; conditions: route intraperitoneal
L1210 [3] = assay: Antitumor activity against mouse L1210 cells implanted in CDF1 mouse assessed as median survival time at 1.6 mg/kg, ip single dose on day 1; format: functional; conditions: route intraperitoneal
L1210 [4] = assay: Antitumor activity against mouse L1210 cells implanted in CDF1 mouse assessed as median survival time at 6.4 mg/kg, ip single dose on day 1; format: functional; conditions: route intraperitoneal
L1210 [5] = assay: Antitumor activity against mouse L1210 cells implanted in CDF1 mouse assessed as median survival time at 3.2 mg/kg, ip single dose on day 1; format: functional; conditions: route intraperitoneal
Mus musculus [6] = assay: Toxicity in mouse L1210 cells implanted CDF1 mouse assessed as survivors on day 5 at 6.4 mg/kg, ip single dose on day 1; format: organism-based; parameters: dose 6.4 mg/kg, route intraperitoneal; conditions: in vivo
L1210 [7] = assay: Antitumor activity against mouse L1210 cells implanted in CDF1 mouse at 0.8 mg/kg, ip qd for 1 to 5 days relative to control; format: functional; conditions: route intraperitoneal
L1210 [8] = assay: Antitumor activity against mouse L1210 cells implanted in CDF1 mouse at 1.6 mg/kg, ip qd for 1 to 5 days relative to control; format: functional; conditions: route intraperitoneal
L1210 [9] = assay: Antitumor activity against mouse L1210 cells implanted in CDF1 mouse at 0.2 mg/kg, ip single dose on day 1 relative to control; format: functional; conditions: route intraperitoneal
Mus musculus [10] = assay: Toxicity in mouse L1210 cells implanted CDF1 mouse assessed as survivors on day 5 at 0.4 mg/kg, ip qd for 1 to 5 days; format: organism-based; parameters: dose 0.4 mg/kg, route intraperitoneal; conditions: in vivo
Mus musculus [11] = assay: Toxicity in mouse L1210 cells implanted CDF1 mouse assessed as survivors on day 5 at 0.8 mg/kg, ip qd for 1 to 5 days; format: organism-based; parameters: dose 0.8 mg/kg, route intraperitoneal; conditions: in vivo
L1210 [12] = assay: Antitumor activity against mouse L1210 cells implanted in CDF1 mouse at 0.8 mg/kg, ip single dose on day 1 relative to control; format: functional; conditions: route intraperitoneal
L1210 [13] = assay: Antitumor activity against mouse L1210 cells implanted in CDF1 mouse at 6.4 mg/kg, ip qd for 1 to 5 days relative to control; format: functional; conditions: route intraperitoneal
Mus musculus [14] = assay: Toxicity in mouse L1210 cells implanted CDF1 mouse assessed as median survival time at 25.6 mg/kg, ip single dose on day 1; format: organism-based; parameters: dose 25.6 mg/kg, route intraperitoneal; conditions: in vivo
Mus musculus [15] = assay: Toxicity in mouse L1210 cells implanted CDF1 mouse assessed as average weight gain at 0.8 mg/kg, ip qd for 1 to 5 days; format: organism-based; parameters: dose 0.8 mg/kg, route intraperitoneal; conditions: in vivo
L1210 [16] = assay: Antitumor activity against mouse L1210 cells implanted in CDF1 mouse at 0.4 mg/kg, ip qd for 1 to 5 days relative to control; format: functional; conditions: route intraperitoneal
Mus musculus [17] = assay: Toxicity in mouse L1210 cells implanted CDF1 mouse assessed as average weight gain at 3.2 mg/kg, ip qd for 1 to 5 days; format: organism-based; parameters: dose 3.2 mg/kg, route intraperitoneal; conditions: in vivo
L1210 [18] = assay: Antitumor activity against mouse L1210 cells implanted in CDF1 mouse assessed as median survival time at 0.2 mg/kg, ip qd for 1 to 5 days; format: functional; conditions: route intraperitoneal
Mus musculus [19] = assay: Toxicity in mouse L1210 cells implanted CDF1 mouse assessed as survivors on day 5 at 3.2 mg/kg, ip qd for 1 to 5 days; format: organism-based; parameters: dose 3.2 mg/kg, route intraperitoneal; conditions: in vivo
Mus musculus [20] = assay: Toxicity in mouse L1210 cells implanted CDF1 mouse assessed as average weight gain at 12.8 mg/kg, ip single dose on day 1; format: organism-based; parameters: dose 12.8 mg/kg, route intraperitoneal; conditions: in vivo
Mus musculus [21] = assay: Toxicity in mouse L1210 cells implanted CDF1 mouse assessed as average weight gain at 0.4 mg/kg, ip qd for 1 to 5 days; format: organism-based; parameters: dose 0.4 mg/kg, route intraperitoneal; conditions: in vivo
L1210 [22] = assay: Antitumor activity against mouse L1210 cells implanted in CDF1 mouse at 3.2 mg/kg, ip single dose on day 1 relative to control; format: functional; conditions: route intraperitoneal
Mus musculus [23] = assay: Toxicity in mouse L1210 cells implanted CDF1 mouse assessed as survivors on day 5 at 3.2 mg/kg, ip single dose on day 1; format: organism-based; parameters: dose 3.2 mg/kg, route intraperitoneal; conditions: in vivo
Mus musculus [24] = assay: Toxicity in mouse L1210 cells implanted CDF1 mouse assessed as average weight gain at 0.8 mg/kg, ip single dose on day 1; format: organism-based; parameters: dose 0.8 mg/kg, route intraperitoneal; conditions: in vivo
L1210 [25] = assay: Antitumor activity against mouse L1210 cells implanted in CDF1 mouse assessed as median survival time at 0.8 mg/kg, ip single dose on day 1; format: functional; conditions: route intraperitoneal
Mus musculus [26] = assay: Toxicity in mouse L1210 cells implanted CDF1 mouse assessed as survivors on day 5 at 1.6 mg/kg, ip qd for 1 to 5 days; format: organism-based; parameters: dose 1.6 mg/kg, route intraperitoneal; conditions: in vivo
Mus musculus [27] = assay: Toxicity in mouse L1210 cells implanted CDF1 mouse assessed as average weight gain at 0.2 mg/kg, ip qd for 1 to 5 days; format: organism-based; parameters: dose 0.2 mg/kg, route intraperitoneal; conditions: in vivo
Mus musculus [28] = assay: Toxicity in mouse L1210 cells implanted CDF1 mouse assessed as average weight gain at 6.4 mg/kg, ip qd for 1 to 5 days; format: organism-based; parameters: dose 6.4 mg/kg, route intraperitoneal; conditions: in vivo
L1210 [29] = assay: Antitumor activity against mouse L1210 cells implanted in CDF1 mouse assessed as median survival time at 0.2 mg/kg, ip single dose on day 1; format: functional; conditions: route intraperitoneal
Mus musculus [30] = assay: Toxicity in mouse L1210 cells implanted CDF1 mouse assessed as average weight gain at 3.2 mg/kg, ip single dose on day 1; format: organism-based; parameters: dose 3.2 mg/kg, route intraperitoneal; conditions: in vivo
Mus musculus [31] = assay: Toxicity in mouse L1210 cells implanted CDF1 mouse assessed as average weight gain at 0.4 mg/kg, ip single dose on day 1; format: organism-based; parameters: dose 0.4 mg/kg, route intraperitoneal; conditions: in vivo
Mus musculus [32] = assay: Toxicity in mouse L1210 cells implanted CDF1 mouse assessed as survivors on day 5 at 0.2 mg/kg, ip qd for 1 to 5 days; format: organism-based; parameters: dose 0.2 mg/kg, route intraperitoneal; conditions: in vivo
L1210 [33] = assay: Antitumor activity against mouse L1210 cells implanted in CDF1 mouse assessed as median survival time at 0.4 mg/kg, ip single dose on day 1; format: functional; conditions: route intraperitoneal
L1210 [34] = assay: Antitumor activity against mouse L1210 cells implanted in CDF1 mouse assessed as median survival time at 12.8 mg/kg, ip single dose on day 1; format: functional; conditions: route intraperitoneal
Mus musculus [35] = assay: Toxicity in mouse L1210 cells implanted CDF1 mouse assessed as average weight gain at 1.6 mg/kg, ip qd for 1 to 5 days; format: organism-based; parameters: dose 1.6 mg/kg, route intraperitoneal; conditions: in vivo
L1210 [36] = assay: Antitumor activity against mouse L1210 cells implanted in CDF1 mouse at 6.4 mg/kg, ip single dose on day 1 relative to control; format: functional; conditions: route intraperitoneal
L1210 [37] = assay: Antitumor activity against mouse L1210 cells implanted in CDF1 mouse assessed as median survival time at 3.2 mg/kg, ip qd for 1 to 5 days; format: functional; conditions: route intraperitoneal
L1210 [38] = assay: Antitumor activity against mouse L1210 cells implanted in CDF1 mouse at 1.6 mg/kg, ip single dose on day 1 relative to control; format: functional; conditions: route intraperitoneal
L1210 [39] = assay: Antitumor activity against mouse L1210 cells implanted in CDF1 mouse assessed as median survival time at 0.4 mg/kg, ip qd for 1 to 5 days; format: functional; conditions: route intraperitoneal
Mus musculus [40] = assay: Toxicity in mouse L1210 cells implanted CDF1 mouse assessed as average weight gain at 1.6 mg/kg, ip single dose on day 1; format: organism-based; parameters: dose 1.6 mg/kg, route intraperitoneal; conditions: in vivo
Mus musculus [41] = assay: Toxicity in mouse L1210 cells implanted CDF1 mouse assessed as survivors on day 5 at 0.4 mg/kg, ip single dose on day 1; format: organism-based; parameters: dose 0.4 mg/kg, route intraperitoneal; conditions: in vivo
L1210 [42] = assay: Antitumor activity against mouse L1210 cells implanted in CDF1 mouse at 0.2 mg/kg, ip qd for 1 to 5 days relative to control; format: functional; conditions: route intraperitoneal
L1210 [43] = assay: Antitumor activity against mouse L1210 cells implanted in CDF1 mouse assessed as median survival time at 0.8 mg/kg, ip qd for 1 to 5 days; format: functional; conditions: route intraperitoneal
L1210 [44] = assay: Antitumor activity against mouse L1210 cells implanted in CDF1 mouse at 12.8 mg/kg, ip single dose on day 1 relative to control; format: functional; conditions: route intraperitoneal
Mus musculus [45] = assay: Toxicity in mouse L1210 cells implanted CDF1 mouse assessed as survivors on day 5 at 12.8 mg/kg, ip single dose on day 1; format: organism-based; parameters: dose 12.8 mg/kg, route intraperitoneal; conditions: in vivo
Mus musculus [46] = assay: Toxicity in mouse L1210 cells implanted CDF1 mouse assessed as average weight gain at 6.4 mg/kg, ip single dose on day 1; format: organism-based; parameters: dose 6.4 mg/kg, route intraperitoneal; conditions: in vivo
Mus musculus [47] = assay: Toxicity in mouse L1210 cells implanted CDF1 mouse assessed as survivors on day 5 at 0.8 mg/kg, ip single dose on day 1; format: organism-based; parameters: dose 0.8 mg/kg, route intraperitoneal; conditions: in vivo
Mus musculus [48] = assay: Toxicity in mouse L1210 cells implanted CDF1 mouse assessed as survivors on day 5 at 1.6 mg/kg, ip single dose on day 1; format: organism-based; parameters: dose 1.6 mg/kg, route intraperitoneal; conditions: in vivo
L1210 [49] = assay: Antitumor activity against mouse L1210 cells implanted in CDF1 mouse assessed as median survival time at 6.4 mg/kg, ip qd for 1 to 5 days; format: functional; conditions: route intraperitoneal
Mus musculus [50] = assay: Toxicity in mouse L1210 cells implanted CDF1 mouse assessed as average weight gain at 0.2 mg/kg, ip single dose on day 1; format: organism-based; parameters: dose 0.2 mg/kg, route intraperitoneal; conditions: in vivo
L1210 [51] = assay: Antitumor activity against mouse L1210 cells implanted in CDF1 mouse at 3.2 mg/kg, ip qd for 1 to 5 days relative to control; format: functional; conditions: route intraperitoneal

`CC[C@@]1(O)C[C@H](O[C@H]2C[C@H](N(C)C)[C@H](O[C@H]3C[C@H](O)[C@H](O)[C@H](C)O3)[C@H](C)O2)c2c(cc3c(c2O)C(=O)c2c(O)ccc(O)c2C3=O)[C@H]1C(=O)OC` [MUSETTAMYCIN] showed a T/C (L1210 [1]) of 108%, an MST (L1210 [2]) of 9.5 days and an MST (L1210 [3]) of 8 days. For the same molecule, the MST (L1210 [4]) was 9.5 days, the MST (L1210 [5]) was 8 days and the Activity (Mus musculus [6]) was “Active”. The T/C (L1210 [7]) was 133%, the T/C (L1210 [8]) was 158% and the T/C (L1210 [9]) was 100%. The Activity (Mus musculus [10]) was “Active”, the Activity (Mus musculus [11]) was “Active” and the T/C (L1210 [12]) was 117%. The T/C (L1210 [13]) was 100%, the Activity (Mus musculus [14]) was “Toxic” and the weight gain (Mus musculus [15]) was 1.4 g. The T/C (L1210 [16]) was 117%, the Activity (Mus musculus [17]) was -1.2 g and the MST (L1210 [18]) was 6.5 days. For the same molecule, the Activity (Mus musculus [19]) was “Active”, the Activity (Mus musculus [20]) was -2.3 g and the weight gain (Mus musculus [21]) was 2.3 g. For the same molecule, the T/C (L1210 [22]) was 133%, the Activity (Mus musculus [23]) was “Active” and the weight gain (Mus musculus [24]) was 2.6 g. For the same molecule, the MST (L1210 [25]) was 7 days, the Activity (Mus musculus [26]) was “Active” and the weight gain (Mus musculus [27]) was 2.8 g. It also gave an Activity (Mus musculus [28]) of -1.9 g, an MST (L1210 [29]) of 6 days and an Activity (Mus musculus [30]) of 0.8 g. For the same molecule, the weight gain (Mus musculus [31]) was 2.7 g, the Activity (Mus musculus [32]) was “Active” and the MST (L1210 [33]) was 6.5 days. For the same molecule, the MST (L1210 [34]) was 10 days, the weight gain (Mus musculus [35]) was 0.3 g and the T/C (L1210 [36]) was 158%. It also gave an MST (L1210 [37]) of 10 days, a T/C (L1210 [38]) of 133% and an MST (L1210 [39]) of 7 days. For the same molecule, the weight gain (Mus musculus [40]) was 0.7 g, the Activity (Mus musculus [41]) was “Active” and the T/C (L1210 [42]) was 117%. The MST (L1210 [43]) was 8 days, the T/C (L1210 [44]) was 167% and the Activity (Mus musculus [45]) was “Active”. The Activity (Mus musculus [46]) was 0.3 g, the Activity (Mus musculus [47]) was “Active” and the Activity (Mus musculus [48]) was “Active”. For the same molecule, the MST (L1210 [49]) was 6 days, the weight gain (Mus musculus [50]) was 2.7 g and the T/C (L1210 [51]) was 167%.
